Laboratory results: publication PMC4336141, “Repurposing Auranofin as a Lead Candidate for Treatment of Lymphatic Filariasis and Onchocerciasis” (PLoS Neglected Tropical Diseases, 2015)

System: adult female O. ochengi
Experiment: Adult female Onchocerca ochengi viability, MTT/formazan assay in vitro
Assay type: cell-based
Settings: Day 7, MTT/formazan
Protocol: Cows that had grazed in northern Cameroon where O. ochengi is highly endemic were brought to abattoirs located in Douala, Cameroon. Subcutaneous nodules containing adult O. ochengi worms were identified on the umbilical skin of infected cows. Adult worm masses containing one viable, adult female and zero to several adult males were carefully recovered by dissection of the nodule with a sterile razor blade. The masses were then incubated in 4 mL of complete culture medium (CCM), which was comprised of RPMI-1640 (Sigma-Aldrich), 5% newborn calf serum, 200 units/mL penicillin, 200 μg/mL streptomycin and 2.5 μg/mL amphotericin B (Sigma-Aldrich), in standard 12-well culture plates. […] Adult female worm viability was assessed on day 7 by the standard MTT/formazan assay in which each nodular mass was placed in a well of a 48-well microtiter plate containing 500 μL of 0.5 mg/mL MTT (Sigma-Aldrich) in incomplete culture medium, and then incubated in the dark at 37°C for 30 minutes. Adult female worm viability was evaluated visually by the extent to which the female worm mass was stained with MTT. Mean percent inhibition of formazan formation was calculated relative to the negative control worm masses after 7 days in culture. […]

Structure (SMILES): CC[PH](CC)(CC)[Au][S][C@@H]1O[C@H](COC(C)=O)[C@@H](OC(C)=O)[C@H](OC(C)=O)[C@H]1OC(C)=O [auranofin, 2,3,4,6-tetra-O-acetyl-1-thio-beta-D-glucopyranosato-S (triethylphosphine) gold]
- IC50: 0.3 µM
